{
  "source": "ChEMBL document CHEMBL1132692",
  "about": "“Paclitaxel derivatives for targeted therapy of cancer: toward the development of smart taxanes” (J Med Chem, 1999)",
  "key": {"[1]": {"target": "T1, Bombesin receptor subtype-3 (Homo sapiens) (UniProt P32247)", "T1 sequence (whole entry)": "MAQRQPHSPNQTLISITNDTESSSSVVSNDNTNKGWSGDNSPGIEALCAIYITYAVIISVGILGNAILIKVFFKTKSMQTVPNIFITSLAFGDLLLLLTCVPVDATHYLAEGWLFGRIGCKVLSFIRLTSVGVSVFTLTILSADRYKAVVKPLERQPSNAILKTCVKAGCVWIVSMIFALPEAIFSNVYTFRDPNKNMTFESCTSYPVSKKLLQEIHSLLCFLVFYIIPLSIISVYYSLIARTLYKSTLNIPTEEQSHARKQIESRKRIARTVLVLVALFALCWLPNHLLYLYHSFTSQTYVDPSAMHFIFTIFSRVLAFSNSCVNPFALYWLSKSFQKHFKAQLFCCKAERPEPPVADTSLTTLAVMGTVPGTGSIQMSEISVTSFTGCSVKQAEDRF", "test": "Inhibition of [125I]Tyr3-BBN binding to NCI-H1299 cell line", "type": "cell-based", "conditions": "concentration not given here"}, "[2]": {"target": "Gastrin-releasing peptide receptor (Mus musculus) (UniProt P21729)", "sequence (P21729 whole entry)": "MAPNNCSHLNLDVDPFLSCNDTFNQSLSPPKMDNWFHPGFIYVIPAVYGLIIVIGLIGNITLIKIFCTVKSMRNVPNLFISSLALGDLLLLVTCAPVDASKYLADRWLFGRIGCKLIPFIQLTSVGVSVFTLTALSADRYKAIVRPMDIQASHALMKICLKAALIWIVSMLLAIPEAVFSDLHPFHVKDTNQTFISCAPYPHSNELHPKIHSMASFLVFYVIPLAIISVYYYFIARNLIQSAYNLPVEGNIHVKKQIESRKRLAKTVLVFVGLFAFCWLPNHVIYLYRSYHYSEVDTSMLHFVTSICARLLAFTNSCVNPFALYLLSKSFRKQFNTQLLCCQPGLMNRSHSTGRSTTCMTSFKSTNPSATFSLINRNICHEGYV", "test": "Inhibition of [125I]Tyr3-BBN binding to BNR-11 cell line (Bombesin/gastrin-releasing peptide receptor)", "type": "cell-based", "conditions": "concentration not given here"}, "[3]": {"test_system": "NCI-H1299", "test": "Inhibitory concentration against NCI-H1299 Human Nonsmall cell lung cancer cells after 24 hr exposure to the compound.", "type": "functional, cell-based", "conditions": "NCI-H1299, 24 h"}, "[4]": {"test_system": "NCI-H1299", "test": "Inhibitory concentration against NCI-H1299 Human Nonsmall cell lung cancer cells after 96h exposure to the compound.", "type": "functional, cell-based", "conditions": "NCI-H1299, 96 h"}},
  "data": [
    {"smiles": "CC(C)C[C@H](NC(=O)[C@H](Cc1c[nH]cn1)NC(=O)CNC(=O)[C@@H](NC(=O)[C@H](C)NC(=O)[C@H](Cc1c[nH]c2ccccc12)NC(=O)[C@@H](N)CCC(N)=O)C(C)C)C(N)=O", "values": [
      {"measurement": "inhibition", "setting": "[1]", "result": 3.6, "unit": "%"},
      {"measurement": "inhibition", "setting": "[2]", "result": 14, "unit": "%"}
    ]},
    {"smiles": "CC(=O)O[C@H]1C(=O)[C@@]2(C)[C@H]([C@H](OC(=O)c3ccccc3)[C@]3(O)C[C@H](OC(=O)[C@H](O)[C@@H](NC(=O)c4ccccc4)c4ccccc4)C(C)=C1C3(C)C)[C@]1(OC(C)=O)CO[C@@H]1C[C@@H]2O", "note": "[PACLITAXEL]", "values": [
      {"measurement": "IC50", "setting": "[3]", "result": 35, "unit": "nM"},
      {"measurement": "IC50", "setting": "[4]", "result": 15, "unit": "nM"}
    ]}
  ]
}
